Measured values from PubChem BioAssay (NCI).
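Grown in 96-well plates, cells were treated for 48 hours with each compound at five concentrations. Insufficient inhibition: endpoint recorded as highest concentration tested. TGI: concentration producing complete growth inhibition.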

What was measured:
Assay in all cases: DTP human tumour cell line panel, 48 h
DLD-1 colon = system: DLD-1 colon
LXFL 529 NSCLC = system: LXFL 529 NSCLC
HOP-18 NSCLC = system: HOP-18 NSCLC
XF 498 CNS = system: XF 498 CNS
DMS 114 small cell lung = system: DMS 114 small cell lung
M19-MEL melanoma = system: M19-MEL melanoma
SNB-78 CNS = system: SNB-78 CNS
KM20L2 colon = system: KM20L2 colon
RXF-631 renal = system: RXF-631 renal

Compound: CC(Oc1ccc(OCC2CCCCC2)cc1)C(=O)OCC(=O)c1ccc(-c2ccccc2)cc1 (centres undefined)
- TGI (DLD-1 colon): > 100 µM
- TGI (LXFL 529 NSCLC): > 100 µM
- TGI (HOP-18 NSCLC): > 100 µM
- TGI (XF 498 CNS): > 100 µM
- TGI (DMS 114 small cell lung): > 100 µM
- TGI (M19-MEL melanoma): > 100 µM
- TGI (SNB-78 CNS): > 100 µM

Compound: Cn1c2ccccc2c2ncc3[nH]c4ccccc4c3c21
- TGI (DLD-1 colon): > 100 µM
- TGI (KM20L2 colon): 36.6 µM
- TGI (RXF-631 renal): > 100 µM
- TGI (LXFL 529 NSCLC): 80.1 µM
- TGI (XF 498 CNS): 31.8 µM
- TGI (DMS 114 small cell lung): 54.3 µM
- TGI (M19-MEL melanoma): 49.1 µM
- TGI (SNB-78 CNS): 57.6 µM

Compound: C=CN1C(=O)[C@H](Oc2ccccc2)[C@@H]1c1ccccc1
- TGI (DLD-1 colon): > 100 µM
- TGI (KM20L2 colon): > 100 µM
- TGI (LXFL 529 NSCLC): > 100 µM
- TGI (HOP-18 NSCLC): > 100 µM
- TGI (XF 498 CNS): 84 µM
- TGI (DMS 114 small cell lung): > 100 µM
- TGI (M19-MEL melanoma): > 100 µM
- TGI (SNB-78 CNS): > 100 µM

Compound: COC(=O)C(C(=O)Cc1ccccc1[N+](=O)[O-])C(=O)OC
- TGI (DLD-1 colon): > 100 µM
- TGI (KM20L2 colon): > 100 µM
- TGI (RXF-631 renal): > 100 µM
- TGI (LXFL 529 NSCLC): > 100 µM
- TGI (HOP-18 NSCLC): > 100 µM
- TGI (XF 498 CNS): > 100 µM
- TGI (M19-MEL melanoma): > 100 µM

Compound: O=S(=O)(c1ccccc1)N1N=C2c3ccccc3CCC[C@H]2C1c1ccccc1 (some centres undefined)
- TGI (DLD-1 colon): > 100 µM
- TGI (KM20L2 colon): > 100 µM
- TGI (LXFL 529 NSCLC): > 100 µM
- TGI (HOP-18 NSCLC): > 100 µM
- TGI (XF 498 CNS): > 100 µM
- TGI (DMS 114 small cell lung): > 100 µM
- TGI (M19-MEL melanoma): > 100 µM
- TGI (SNB-78 CNS): > 100 µM

Compound: CC(C)=CC1CC(=[N+]=[N-])C(=O)C1(C)C (centres undefined)
- TGI (DLD-1 colon): > 100 µM
- TGI (KM20L2 colon): > 100 µM
- TGI (LXFL 529 NSCLC): > 100 µM
- TGI (HOP-18 NSCLC): > 100 µM
- TGI (XF 498 CNS): > 100 µM
- TGI (DMS 114 small cell lung): > 100 µM
- TGI (M19-MEL melanoma): > 100 µM
- TGI (SNB-78 CNS): > 100 µM

Compound: COc1cccc(C2CC23C(=O)NC(=O)NC3=O)c1 (centres undefined)
- TGI (KM20L2 colon): > 100 µM
- TGI (LXFL 529 NSCLC): > 100 µM
- TGI (XF 498 CNS): > 100 µM
- TGI (DMS 114 small cell lung): > 100 µM
- TGI (M19-MEL melanoma): > 100 µM
- TGI (SNB-78 CNS): > 100 µM

Compound: Cc1nn(C(=O)CC(=O)Nc2ccc(Cl)cc2)c(C)c1N=Nc1ccccc1C(=O)O
- TGI (DLD-1 colon): > 100 µM
- TGI (KM20L2 colon): > 100 µM
- TGI (LXFL 529 NSCLC): > 100 µM
- TGI (DMS 114 small cell lung): > 100 µM
- TGI (M19-MEL melanoma): > 100 µM
- TGI (SNB-78 CNS): > 100 µM

Compound: CS(=O)(=O)c1ccc(-c2cc(-c3ccc(S(C)(=O)=O)cc3)[n+](-c3cc(-c4ccccc4)c([O-])c(-c4ccccc4)c3)c(-c3ccc(S(C)(=O)=O)cc3)c2)cc1
- TGI (KM20L2 colon): > 100 µM
- TGI (RXF-631 renal): > 100 µM
- TGI (LXFL 529 NSCLC): > 100 µM
- TGI (HOP-18 NSCLC): > 100 µM
- TGI (XF 498 CNS): > 100 µM
- TGI (DMS 114 small cell lung): > 100 µM
- TGI (M19-MEL melanoma): > 100 µM
- TGI (SNB-78 CNS): > 100 µM

Compound: CC1(C)CC(=O)CC(=Nc2ccc([N+](=O)[O-])cc2)C1
- TGI (DLD-1 colon): 49.6 µM
- TGI (KM20L2 colon): > 100 µM
- TGI (RXF-631 renal): > 100 µM
- TGI (LXFL 529 NSCLC): > 100 µM
- TGI (HOP-18 NSCLC): > 100 µM
- TGI (XF 498 CNS): > 100 µM
- TGI (DMS 114 small cell lung): > 100 µM
- TGI (M19-MEL melanoma): > 100 µM
- TGI (SNB-78 CNS): > 100 µM

Compound: CN(CCN(C)C(=O)CCn1cc(F)c(=O)[nH]c1=O)C(=O)CCn1cc(F)c(=O)[nH]c1=O
- TGI (KM20L2 colon): > 100 µM
- TGI (LXFL 529 NSCLC): > 100 µM
- TGI (XF 498 CNS): > 100 µM
- TGI (DMS 114 small cell lung): > 100 µM
- TGI (M19-MEL melanoma): > 100 µM

Compound: CCOC(=O)/C(=C/c1ccc(N(C)C)cc1)N(CC)CC
- TGI (KM20L2 colon): > 100 µM
- TGI (LXFL 529 NSCLC): > 100 µM
- TGI (XF 498 CNS): > 100 µM
- TGI (DMS 114 small cell lung): > 100 µM
- TGI (M19-MEL melanoma): 60.1 µM
- TGI (SNB-78 CNS): > 100 µM

Compound: COC(=O)[C@@]1(C)/C(=N/NS(=O)(=O)c2ccc(C)cc2)CCC[C@@H]1C
- TGI (DLD-1 colon): > 100 µM
- TGI (KM20L2 colon): > 100 µM
- TGI (LXFL 529 NSCLC): > 100 µM
- TGI (HOP-18 NSCLC): > 100 µM
- TGI (DMS 114 small cell lung): 45 µM
- TGI (M19-MEL melanoma): > 100 µM
- TGI (SNB-78 CNS): > 100 µM

Compound: Cc1ccc(NC(=O)CCc2nnc(N)o2)cc1
- TGI (DLD-1 colon): > 100 µM
- TGI (KM20L2 colon): > 100 µM
- TGI (RXF-631 renal): > 31.6 µM
- TGI (LXFL 529 NSCLC): > 100 µM
- TGI (XF 498 CNS): > 100 µM
- TGI (DMS 114 small cell lung): > 100 µM
- TGI (M19-MEL melanoma): > 100 µM
- TGI (SNB-78 CNS): > 100 µM

Compound: C=C(C)C1CCC2(C)CC1c1c(c(C)cc3c1[nH]c1ccccc13)O2 (centres undefined)
- TGI (DLD-1 colon): > 25 µM
- TGI (KM20L2 colon): > 25 µM
- TGI (LXFL 529 NSCLC): > 25 µM
- TGI (XF 498 CNS): > 25 µM
- TGI (DMS 114 small cell lung): > 25 µM
- TGI (M19-MEL melanoma): > 25 µM

Compound: CCOC1c2cc(C(C)C)c(O)c(O)c2[C@@]23CCCC(C)(C)C2C1OC3=O (some centres undefined)
- TGI (DLD-1 colon): > 100 µM
- TGI (KM20L2 colon): > 100 µM
- TGI (LXFL 529 NSCLC): > 100 µM
- TGI (DMS 114 small cell lung): > 100 µM
- TGI (M19-MEL melanoma): > 100 µM
- TGI (SNB-78 CNS): > 100 µM

Compound: CCCCC/C=C1\CCC(CN(C)C)C1=O (centres undefined)
- TGI (DLD-1 colon): 14.4 µM
- TGI (KM20L2 colon): 30.1 µM
- TGI (RXF-631 renal): 28.3 µM
- TGI (LXFL 529 NSCLC): 3.9 µM
- TGI (HOP-18 NSCLC): 39.4 µM
- TGI (XF 498 CNS): 28.3 µM
- TGI (DMS 114 small cell lung): 29 µM
- TGI (M19-MEL melanoma): 26.6 µM
- TGI (SNB-78 CNS): 58.7 µM

Compound: COc1ccc(OC)c(/C=C(/C#N)c2ccccc2)c1
- TGI (DLD-1 colon): > 100 µM
- TGI (KM20L2 colon): > 100 µM
- TGI (LXFL 529 NSCLC): > 100 µM
- TGI (HOP-18 NSCLC): > 100 µM
- TGI (M19-MEL melanoma): > 100 µM

Compound: C[N+](C)(C)CC1CCC/C1=N\OC(=O)c1ccccc1 (centres undefined)
- TGI (DLD-1 colon): > 100 µM
- TGI (KM20L2 colon): > 100 µM
- TGI (LXFL 529 NSCLC): > 100 µM
- TGI (HOP-18 NSCLC): > 100 µM
- TGI (XF 498 CNS): > 100 µM
- TGI (DMS 114 small cell lung): > 100 µM
- TGI (M19-MEL melanoma): > 100 µM
- TGI (SNB-78 CNS): > 100 µM

Compound: Cn1cnnc1Sc1c([N+](=O)[O-])ncn1C
- TGI (DLD-1 colon): > 100 µM
- TGI (RXF-631 renal): > 100 µM
- TGI (LXFL 529 NSCLC): 63 µM
- TGI (HOP-18 NSCLC): 82.5 µM
- TGI (XF 498 CNS): > 100 µM
- TGI (DMS 114 small cell lung): > 100 µM
- TGI (SNB-78 CNS): > 100 µM

Compound: CN(C)CCNC(=O)c1cccc2c(Nc3ccc(S(=O)(=O)N=C(N)N)cc3)c3ccccc3nc12
- TGI (DLD-1 colon): > 100 µM
- TGI (KM20L2 colon): > 100 µM
- TGI (LXFL 529 NSCLC): > 100 µM
- TGI (XF 498 CNS): 47.4 µM
- TGI (DMS 114 small cell lung): 15.1 µM
- TGI (M19-MEL melanoma): 59.9 µM

Compound: O=[N+]([O-])c1ccc(-c2cnc3ccccn23)cc1
- TGI (KM20L2 colon): > 100 µM
- TGI (LXFL 529 NSCLC): > 100 µM
- TGI (XF 498 CNS): > 100 µM
- TGI (DMS 114 small cell lung): > 100 µM
- TGI (M19-MEL melanoma): > 100 µM
- TGI (SNB-78 CNS): > 100 µM
